# Measured values: ChEMBL document CHEMBL1201862, “PubChem BioAssay data set” (2004)
#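 Results reflect a 48-hour exposure of cells in 96-well plates to compound at five concentrations. GI50: concentration for 50% inhibition of growth.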 Active and inactive are the calls of the source. Cut-off read from the data, not from the text of the source: active = GI50 up to about 1.1 µM and inactive = higher.
# Key:
# Test in all cases: NCI-60 cell line screen, 48 h
# T47D = system: T47D
# HOP-62 = system: HOP-62
# K562 = system: K562
# SK-MEL-28 = system: SK-MEL-28
# NCI-H522 = system: NCI-H522
# OVCAR-8 = system: OVCAR-8
# OVCAR-3 = system: OVCAR-3
# RPMI-8226 = system: RPMI-8226
# NCI/ADR-RES = system: NCI/ADR-RES
# DU-145 = system: DU-145
# UACC-62 = system: UACC-62
# NCI-H23 = system: NCI-H23
# U-251 = system: U-251
# OVCAR-5 = system: OVCAR-5
# OVCAR-4 = system: OVCAR-4
# HCT-15 = system: HCT-15
# SF-539 = system: SF-539
# NCI-H460 = system: NCI-H460
# EKVX = system: EKVX
# SW-620 = system: SW-620
# PC-3 = system: PC-3
# BT-549 = system: BT-549
# A549 = system: A549
# Malme-3M = system: Malme-3M
# SK-OV-3 = system: SK-OV-3
# MCF7 = system: MCF7
# Hs-578T = system: Hs-578T
# RXF 393 = system: RXF 393
# SF-295 = system: SF-295
# MDA-N = system: MDA-N
# SR = system: SR
# HT-29 = system: HT-29
# SN12C = system: SN12C
# 786-0 = system: 786-0
# SNB-19 = system: SNB-19
# HOP-92 = system: HOP-92
# UACC-257 = system: UACC-257
# M14 = system: M14
# UO-31 = system: UO-31
# A498 = system: A498
# COLO 205 = system: COLO 205
# NCI-H226 = system: NCI-H226
# HCT-116 = system: HCT-116
# SK-MEL-5 = system: SK-MEL-5
# LOX IMVI = system: LOX IMVI
# ACHN = system: ACHN
# SK-MEL-2 = system: SK-MEL-2
# SF-268 = system: SF-268
# SNB-75 = system: SNB-75
# MOLT-4 = system: MOLT-4
# MDA-MB-231 = system: MDA-MB-231
# KM12 = system: KM12
# HL-60 = system: HL-60
# IGROV-1 = system: IGROV-1
# TK-10 = system: TK-10
# CCRF-CEM = system: CCRF-CEM
# MDA-MB-435 = system: MDA-MB-435
# HCC 2998 = system: HCC 2998
# CAKI-1 = system: CAKI-1
compound,measurement,setting,value
Cc1c(S(=O)(=O)N/C(N)=N/c2ccc(Cl)cc2)sc2ccc(Cl)cc12,GI50,T47D,29.7 µM (inactive)
same,GI50,HOP-62,18.5 µM (inactive)
same,GI50,K562,36.2 µM (inactive)
same,GI50,SK-MEL-28,21.4 µM (inactive)
same,GI50,NCI-H522,14 µM (inactive)
same,GI50,OVCAR-8,19.3 µM (inactive)
same,GI50,OVCAR-3,18.2 µM (inactive)
same,GI50,RPMI-8226,33.7 µM (inactive)
same,GI50,NCI/ADR-RES,19.5 µM (inactive)
same,GI50,DU-145,18.5 µM (inactive)
same,GI50,UACC-62,16.5 µM (inactive)
same,GI50,NCI-H23,18 µM (inactive)
same,GI50,U-251,16.3 µM (inactive)
same,GI50,OVCAR-5,18.8 µM (inactive)
same,GI50,OVCAR-4,22.2 µM (inactive)
same,GI50,HCT-15,19.4 µM
same,GI50,SF-539,23.9 µM (inactive)
same,GI50,NCI-H460,16.9 µM (inactive)
same,GI50,EKVX,15.9 µM (inactive)
same,GI50,SW-620,22 µM (inactive)
same,GI50,PC-3,14.7 µM (inactive)
same,GI50,BT-549,24.4 µM (inactive)
same,GI50,A549,19.1 µM (inactive)
same,GI50,Malme-3M,17.1 µM (inactive)
same,GI50,SK-OV-3,26.1 µM (inactive)
same,GI50,MCF7,17.8 µM (inactive)
same,GI50,Hs-578T,21.7 µM (inactive)
same,GI50,RXF 393,48.6 µM (inactive)
same,GI50,SF-295,20.7 µM (inactive)
same,GI50,MDA-N,20.1 µM (inactive)
same,GI50,SR,47.3 µM (inactive)
same,GI50,HT-29,19.8 µM (inactive)
same,GI50,SN12C,15.7 µM (inactive)
same,GI50,786-0,17.1 µM (inactive)
same,GI50,SNB-19,21.4 µM (inactive)
same,GI50,HOP-92,22.6 µM (inactive)
same,GI50,UACC-257,18.1 µM (inactive)
same,GI50,M14,17.3 µM (inactive)
same,GI50,UO-31,15.3 µM (inactive)
same,GI50,A498,15.6 µM (inactive)
same,GI50,COLO 205,17.2 µM (inactive)
same,GI50,NCI-H226,20.4 µM (inactive)
same,GI50,HCT-116,15.9 µM (inactive)
same,GI50,SK-MEL-5,33.6 µM (inactive)
same,GI50,LOX IMVI,20 µM (inactive)
same,GI50,ACHN,17 µM (inactive)
same,GI50,SK-MEL-2,17.2 µM (inactive)
same,GI50,SF-268,17 µM (inactive)
same,GI50,SNB-75,19.6 µM (inactive)
same,GI50,MOLT-4,28.6 µM (inactive)
same,GI50,MDA-MB-231,16 µM (inactive)
same,GI50,KM12,28.1 µM (inactive)
same,GI50,HL-60,25.8 µM (inactive)
same,GI50,IGROV-1,16.1 µM (inactive)
same,GI50,TK-10,19.9 µM (inactive)
CN(C(=O)c1ccccc1)C1CCCC(=O)CC1 (stereo unspecified),GI50,T47D,> 100 µM (inactive)
same,GI50,HOP-62,> 100 µM (inactive)
same,GI50,K562,> 100 µM (inactive)
same,GI50,SK-MEL-28,> 100 µM (inactive)
same,GI50,NCI-H522,> 100 µM (inactive)
same,GI50,OVCAR-8,> 100 µM (inactive)
same,GI50,OVCAR-3,> 100 µM (inactive)
same,GI50,RPMI-8226,> 100 µM (inactive)
same,GI50,DU-145,> 100 µM (inactive)
same,GI50,UACC-62,> 100 µM (inactive)
same,GI50,CCRF-CEM,> 100 µM (inactive)
same,GI50,NCI-H23,> 100 µM (inactive)
same,GI50,U-251,> 100 µM (inactive)
same,GI50,OVCAR-5,> 100 µM (inactive)
same,GI50,OVCAR-4,> 100 µM (inactive)
same,GI50,HCT-15,> 100 µM
same,GI50,SF-539,> 100 µM (inactive)
same,GI50,NCI-H460,> 100 µM (inactive)
same,GI50,EKVX,> 100 µM (inactive)
same,GI50,SW-620,> 100 µM (inactive)
same,GI50,PC-3,> 100 µM (inactive)
same,GI50,BT-549,> 100 µM (inactive)
same,GI50,A549,> 100 µM (inactive)
same,GI50,Malme-3M,> 100 µM (inactive)
same,GI50,SK-OV-3,> 100 µM (inactive)
same,GI50,MCF7,> 100 µM (inactive)
same,GI50,MDA-MB-435,> 100 µM (inactive)
same,GI50,Hs-578T,> 100 µM (inactive)
same,GI50,RXF 393,> 100 µM (inactive)
same,GI50,SF-295,> 100 µM (inactive)
same,GI50,MDA-N,> 100 µM (inactive)
same,GI50,SR,> 100 µM (inactive)
same,GI50,HT-29,> 100 µM (inactive)
same,GI50,SN12C,> 100 µM (inactive)
same,GI50,786-0,> 100 µM (inactive)
same,GI50,SNB-19,> 100 µM (inactive)
same,GI50,HOP-92,> 100 µM (inactive)
same,GI50,UACC-257,> 100 µM (inactive)
same,GI50,M14,> 100 µM (inactive)
same,GI50,HCC 2998,> 100 µM (inactive)
same,GI50,UO-31,> 100 µM (inactive)
same,GI50,A498,> 100 µM (inactive)
same,GI50,COLO 205,> 100 µM (inactive)
same,GI50,NCI-H226,> 100 µM (inactive)
same,GI50,HCT-116,> 100 µM (inactive)
same,GI50,LOX IMVI,> 100 µM (inactive)
same,GI50,ACHN,> 100 µM (inactive)
same,GI50,SK-MEL-2,> 100 µM (inactive)
same,GI50,SF-268,> 100 µM (inactive)
same,GI50,SNB-75,> 100 µM (inactive)
same,GI50,MDA-MB-231,> 100 µM (inactive)
same,GI50,KM12,> 100 µM (inactive)
same,GI50,HL-60,> 100 µM (inactive)
same,GI50,IGROV-1,> 100 µM (inactive)
same,GI50,CAKI-1,> 100 µM (inactive)
same,GI50,TK-10,> 100 µM (inactive)
